The record followed here is patent US4350685A, “Antiallergic imidodisulfamides” (SmithKline Corporation, priority 1981, dated 1982).

The subject of this assay is SRS-A induced contraction of guinea pig ileum. The experiment in a line: inhibition of SRS-A induced contraction of guinea pig ileum (SRS-A antagonist activity). Particulars: Cavia porcellus, 0.25 h, partially purified SRS-A from guinea pig lung, 40 μg/ml, 15 minutes incubation, read-out: percent antagonism of SRS-A; for inhibition at 5 µM: 5×10^-6 M. The assay is classed as cell-based. The protocol:
The SRS-A antagonist activity of the compounds of this invention is measured by the ability of the active medicament to inhibit SRS-A induced contraction of guinea pig ileum. In this test system, sections of ileum are resected from guinea pigs and placed in 5 ml. tissue baths containing a modified Tyrode's solution. One end of the tissue is fixed to a glass tissue holder, the other is connected to a force-displacement transducer and the tissue is placed under a tension of 500 mg. Isometric tissue contractions are recorded on a six channel polygraph. Baths are constantly aerated with 95% O2 -5% CO2. After a 20 minute stabilization period a concentration of the appropriate agonist which provides a contraction height of 60-80% of the maximum obtainable to that agonist (as determined from full sequential concentration-response curves in separate experiments) is added to the tissue bath and the response recorded. The procedure is repeated until reproducible responses are obtained. For most agonists, two applications in rapid succession, followed 15 minutes later by a third, is sufficient to establish reproducibility. Experimental tissues are incubated with the selected concentration of the test compounds for 15 minutes. Experimental and control tissues are subjected to 5 bath changes during the incubation interval. Changes in bath fluid during the incubation period are helpful in insuring the reproducibility of tissue responses to the agonist. The same concentration of the agonist is reapplied in the presence of the test compound and the response registered and compared with controls. Percent inhibition produced by the test compound is calculated by substracting the mean percentage change in control tissue from the mean percentage change in tissues exposed to the test compound. Additional compounds are then evaluated as long as the tissue remains reproducibly responsive to the agonist. Six tissues obtained from 6 animals are used simultaneously--3 controls and 3 experimental. […]

For `O=S(=O)(N[C@@H]1CCCC[C@@H]1c1ccccc1)NS(=O)(=O)N[C@@H]1CCCC[C@@H]1c1ccccc1` (relative stereo) [Compound 3, 1,5-di[cis-2-phenylcyclohexyl]imidodisulfamide], where the note is “5×10^-5 M”, the inhibition at 50 µM amounted to 86%.

`O=S(=O)(N[C@@H]1C[C@H]1c1ccc(Cl)c(Cl)c1)NS(=O)(=O)N[C@@H]1C[C@H]1c1ccc(Cl)c(Cl)c1` (relative stereo) [Compound 2, 1,5-di[trans-2-(3,4-dichlorophenyl)cyclopropyl]imidodisulfamide]: the inhibition at 5 µM is 60%.

Regarding `O=S(=O)(N[C@@H]1C[C@H]1c1ccccc1)NS(=O)(=O)N[C@@H]1C[C@H]1c1ccccc1` (relative stereo) [Compound 1, 1,5-Di[TRANS-2-PHENYLCYCLOPROPYL]IMIDODISULFAMIDE], the inhibition at 5 µM is 17%.
